Tests used:
Assay type in all cases: in vivo
[1] = test system: rice leafroller (Cnaphalocrocis medinalis); experiment: Insecticidal effect on rice leafroller (Test Example 3); conditions: 500 ppm, 25° C., humidity 70%; for Insecticidal effect, Test Example 3: rice lamina immersed; for Insecticidal effect, Test Example 3 / Insecticidal effect on rice leafroller (Test Example 3), judged grade: four days after inoculation; for Insecticidal effect (Test Example 3), judged from mortality / Insecticidal effect on rice leafroller (Test Example 3), judged grade: rice lamina dip; for Insecticidal effect (Test Example 3), judged from mortality: 4 days after inoculation; for Insecticidal effect on rice leafroller (Test Example 3), judged grade: third-instar larvae
How it was run: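 Groups of 10 third-instar larvae, in triplicate, are placed on air-dried lamina resting on wet filter paper. Incubation runs four days at 25° C with 70% humidity before survivors and dead are tallied.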

[2] = test system: diamondback moth (Plutella xylostella); experiment: Insecticidal effect on diamondback moth (Test Example 1); conditions: for Insecticidal effect, Test Example 1 / Insecticidal effect (Test Example 1), judged from mortality: diamondback moth; for Insecticidal effect (Test Example 1), judged from mortality: judged by the criterion of Test Example 1; for Insecticidal effect on diamondback moth (Test Example 1), judged grade: mortality judged according to the criterion shown in Test Example 1
How it was run: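 Read-out was mortality from hatched-insect counts taken 6 days after the egg-bearing cabbage seedling was immersed, graded by set criteria. Seedlings were air-dried and kept at 25° C after treatment. Groups of 10 insects, in triplicate.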

[3] = test system: common cutworm (Spodoptera Litura); experiment: Insecticidal effect on common cutworm (Test Example 2); conditions: 500 ppm, 25° C.; for Insecticidal effect, Test Example 2: cabbage leaf immersed; for Insecticidal effect, Test Example 2 / Insecticidal effect on common cutworm (Test Example 2), judged grade: eight days after inoculation; for Insecticidal effect (Test Example 2), judged from mortality / Insecticidal effect on common cutworm (Test Example 2), judged grade: cabbage leaf dip; for Insecticidal effect (Test Example 2), judged from mortality: 8 days after inoculation; for Insecticidal effect on common cutworm (Test Example 2), judged grade: second-instar larvae
How it was run: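 Second-instar larvae placed in 9 cm Petri dishes with air-dried treated material, held at 25 °C. Dead and live insects counted 8 days after inoculation; mortality calculated and scored against a set criterion. Triplicate groups of 10 insects.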

[4] = third-instar larvae of rice leafroller
[5] = judged by the mortality criterion of Test Example 1
[6] = second-instar larvae of common cutworm
[7] = rice leafroller third-instar larvae
[8] = mortality judged by criterion of Test Example 1
[9] = common cutworm second-instar larvae

Compound: Cc1c(Cl)cccc1NC(=O)c1cccc(Br)c1C(=O)NC(C)C [compound 266]
- Insecticidal effect, Test Example 3 [1, 4]: A (100)
- Insecticidal effect, Test Example 1 [2, 5]: A (100)
- Insecticidal effect, Test Example 2 [3, 6]: A (100)

Compound: CC(C)NC(=O)c1c(Cl)cccc1C(=O)Nc1ccc(C(F)(C(F)(F)F)C(F)(F)F)cc1 [compound 89]
- Insecticidal effect, Test Example 3 [1, 4]: A (100)
- Insecticidal effect, Test Example 1 [2, 5]: A (100)
- Insecticidal effect, Test Example 2 [3, 6]: B (99-90)

Compound: CC(C)NC(=O)c1c(I)cccc1C(=O)Nc1cc2c(cc1Cl)OC(F)(F)O2 [compound 1622]
- Insecticidal effect (Test Example 3), judged from mortality [1, 4]: A (100)
- Insecticidal effect (Test Example 1), judged from mortality [2]: A (100)
- Insecticidal effect (Test Example 2), judged from mortality [3, 6]: A (100)

Compound: CCN(CC)C(=O)c1c(Cl)cccc1C(=O)Nc1ccc(C(F)(C(F)(F)F)C(F)(F)F)cc1C [compound 1537]
- Insecticidal effect (Test Example 3), judged from mortality [1, 4]: A (100)
- Insecticidal effect (Test Example 1), judged from mortality [2]: A (100)
- Insecticidal effect (Test Example 2), judged from mortality [3, 6]: A (100)

Compound: Cc1cc(OC(F)(F)C(F)(F)Br)ccc1NC(=O)c1cccc(Cl)c1C(=O)NC(C)C [compound 144]
- Insecticidal effect, Test Example 3 [1, 4]: A (100)
- Insecticidal effect, Test Example 1 [2, 5]: A (100)
- Insecticidal effect, Test Example 2 [3, 6]: A (100)

Compound: CC(C)(C)NC(=O)c1c(I)cccc1C(=O)Nc1ccc(SC(F)(F)F)cc1 [compound 1127]
- Insecticidal effect, Test Example 3 [1, 7]: A (100)
- Insecticidal effect, Test Example 1 [2, 8]: A (100)
- Insecticidal effect, Test Example 2 [3, 9]: A (100)

Compound: CC(C)NC(=O)c1c(I)cccc1C(=O)Nc1ccc(OC(F)F)c(OC(F)F)c1 [compound 385]
- Insecticidal effect, Test Example 3 [1, 4]: A (100)
- Insecticidal effect, Test Example 1 [2, 5]: A (100)
- Insecticidal effect, Test Example 2 [3, 6]: B (99-90)

Compound: Cc1cc(OC(F)(F)Br)ccc1NC(=O)c1c(I)cccc1C(=O)NC(C)C [compound 452]
- Insecticidal effect on rice leafroller (Test Example 3), judged grade [1]: A (100)
- Insecticidal effect on diamondback moth (Test Example 1), judged grade [2]: A (100)
- Insecticidal effect on common cutworm (Test Example 2), judged grade [3]: A (100)

Compound: Cc1cc(C(F)(F)C(F)(F)F)ccc1NC(=O)c1cccc(I)c1C(=O)NC1CCCC1 [compound 991]
- Insecticidal effect, Test Example 3 [1, 7]: A (100)
- Insecticidal effect, Test Example 1 [2, 8]: A (100)
- Insecticidal effect, Test Example 2 [3, 9]: A (100)

Compound: Cc1cc(C(F)(F)C(F)(F)F)ccc1NC(=O)c1ccc(F)c(Cl)c1C(=O)NC(C)C [compound 1228]
- Insecticidal effect, Test Example 3 [1, 7]: A (100)
- Insecticidal effect, Test Example 1 [2, 8]: A (100)
- Insecticidal effect, Test Example 2 [3, 9]: A (100)

Compound: Cc1ccc(Cl)cc1NC(=O)c1cccc([N+](=O)[O-])c1C(N)=O [compound 1]
- Insecticidal effect, Test Example 3 [1, 4]: A (100)
- Insecticidal effect, Test Example 1 [2, 5]: D (79-50)
- Insecticidal effect, Test Example 2 [3, 6]: D (79-50)

Compound: Cc1cc(OC(F)(F)C(F)Cl)ccc1NC(=O)c1ccccc1C(=O)NC(C)C (stereo not drawn) [compound 62]
- Insecticidal effect, Test Example 3 [1, 4]: A (100)
- Insecticidal effect, Test Example 1 [2, 5]: A (100)
- Insecticidal effect, Test Example 2 [3, 6]: A (100)

Compound: Cc1ccc(NC(=O)c2cccc([N+](=O)[O-])c2C(=O)NC(C)C)c(C)c1 [compound 648]
- Insecticidal effect on rice leafroller (Test Example 3), judged grade [1]: A (100)
- Insecticidal effect on diamondback moth (Test Example 1), judged grade [2]: A (100)
- Insecticidal effect on common cutworm (Test Example 2), judged grade [3]: D (79-50)

Compound: Cc1cc(SC(F)(F)C(F)(F)F)ccc1NC(=O)c1cccc(F)c1C(=O)NC(C)C [compound 905]
- Insecticidal effect on rice leafroller (Test Example 3), judged grade [1]: A (100)
- Insecticidal effect on diamondback moth (Test Example 1), judged grade [2]: A (100)
- Insecticidal effect on common cutworm (Test Example 2), judged grade [3]: A (100)

Compound: Cc1c(Cl)ccc(NC(=O)c2cccc([N+](=O)[O-])c2C(=O)NC(C)C)c1C [compound 669]
- Insecticidal effect on rice leafroller (Test Example 3), judged grade [1]: A (100)
- Insecticidal effect on diamondback moth (Test Example 1), judged grade [2]: A (100)
- Insecticidal effect on common cutworm (Test Example 2), judged grade [3]: D (79-50)

Compound: CC(C)NC(=O)c1c(I)cccc1C(=O)Nc1ccc(C(F)(F)C(F)(F)F)cc1Br [compound 1580]
- Insecticidal effect (Test Example 3), judged from mortality [1, 4]: A (100)
- Insecticidal effect (Test Example 1), judged from mortality [2]: A (100)
- Insecticidal effect (Test Example 2), judged from mortality [3, 6]: A (100)

Compound: Cc1cc(OC(F)(F)C(F)Cl)ccc1NC(=O)c1c(Br)cccc1C(=O)NC(C)C (stereo not drawn) [compound 329]
- Insecticidal effect, Test Example 3 [1, 4]: A (100)
- Insecticidal effect, Test Example 1 [2, 5]: A (100)
- Insecticidal effect, Test Example 2 [3, 6]: A (100)

Compound: Cc1cc(Oc2ccc(C(F)(F)F)cn2)ccc1NC(=O)c1cccc(Cl)c1C(=O)NC(C)C [compound 158]
- Insecticidal effect, Test Example 3 [1, 4]: A (100)
- Insecticidal effect, Test Example 1 [2, 5]: A (100)
- Insecticidal effect, Test Example 2 [3, 6]: A (100)
